Test results: patent US9340559B2, “Proteasome inhibitor delanzomib for use in the treatment of lupus” (Cephalon, Inc., priority 2011, dated 2016)

Columns and labels:
MRL/lpr mice [1] = experiment: Serum C3 complement ELISA, MRL/lpr mice; format: in vivo, mouse
From the text: Mice are tracked on an individual basis.

IκBα [2] = experiment: IκBα accumulation ELISA in kidney 3 hours post dose, MRL/lpr mice; format: in vivo, mouse
Method: (§1) Samples are homogenized frozen using a PT 10-35 Polytron homogenizer (VWR, no. 97036-082). […] Spleen proteasome activity is analyzed using 20S fluorogenic assay (Cayman Chemical Company, Cat #10008041, Lot #0414698-1) and modulation of proteasome activity in the kidney is analyzed using the IκBα accumulation ELISA assay (Cell Signaling, Cat #7355, Lot #17).

IκBα [3] = experiment: IκBα accumulation ELISA in kidney 3 hours post dosing, NZM mice (Example 2); format: in vivo, mouse
Method: as §1

NZM mice [4] = experiment: Survival, NZM mice, sc/ip dosing (Example 3); format: in vivo, mouse; conditions: Groups 1, 2, and 4
Method: FIG. 44 depicts survival of NZM mice across treatment groups for the study duration. NZM mice were treated as outlined in the legend. […] The overall percentage of surviving mice at the 91 day endpoint is listed in parentheses within the legend. * indicates p≦0.05.

NZM mice [5] = experiment: Total urine protein (proteinuria), NZM mice (Example 3); format: in vivo, mouse; conditions: Groups 1, 2, 4, and 5
Method: FIG. 45 depicts total urine protein (proteinuria) in NZM mice. Urine collected from NZM mice was analyzed for total protein content using a rat urinalysis kit.
Urine samples are acid precipitated for total protein analysis. For urine sample preparation, urine samples are centrifuged at 10,000 rpm for 3 minutes using a tabletop micro-centrifuge. 1-50 μL of urine supernatant is added in duplicate. PBS is added to adjust the volume to 50 μL total. For the turbidity assay: 25 μL of 0.1 N HCl is added into blank columns and 250 μL of 3% sulfosalicyclic acid into the test columns. The microplate is incubated for 10 minutes at RT and plates are read using an ELISA reader with single beam at 450 nm. A standard protein solution is prepared from normal mouse sera and is used as a standard for mouse urinary protein assay by turbidity. Standard preparation is as follows: 0, 5, 10, 15, 20, 30, 40, and 50 μL of a 4 mg/mL mouse sera standard protein solution as provided in the kit are added in duplicate into two columns. PBS is added to individual wells to adjust the final volume to 50 μL. Samples for which enough urine remains are used for Uristix® leukouria analysis. For the Uristix® strip assay, strips are laid out and labeled. Twenty microliters of urine are placed onto each test strip square and incubated for at least 30 seconds before the result is recorded. […]

NZM mice [6] = experiment: Antibody secreting cell Elispot (anti-Smith, anti-dsDNA ASC), spleens of NZM mice (Example 3); format: in vivo, mouse
Method: (§2) FIG. 49 depicts the frequency of anti-Smith antibody secreting cells in the spleens of NZM mice. NZM treated mice spleens were processed for splenocytes for ex vivo Elispot assays. Elispot wells were coated with 10 μg/mL of purified smith antigen or ovalbumin protein as a third party background control antigen. Fresh, whole splenocytes were added to each well at 500,000 cells per well in cell culture medium. Cells were incubated overnight at 37° C. Developed wells provided spots that were counted as frequency of ASCs per million splenocytes.
as §2, with “50” for “49”, “anti-dsDNA” for “anti-Smith”, “bovine dsDNA” for “purified smith antigen”
B-cell Elispot components are ordered from MabTech (Nacka Strand, Sweden) and nitrocellulose IP filter plates are ordered from Millipore (Billerica, Mass.). Elispot wells are coated with either purified bovine thymus dsDNA (Sigma), purified bovine Smith antigen (GenWay) or boiled filtered purified chicken chromatin from lysed chicken red blood cells (Rockland, Gilbertsville, Pa.) at 10 μg/mL. Spleens are processed using glass homogenization (frosted slides). Dispersed cell contents are washed in sterile HBSS and RBCs lysed using 1×RBC lysis buffer (BioLegend, Cat #420301). Processed splenocytes are added to each well and are not stimulated with lipopolysaccharide (LPS) to avoid skewing of true ex vivo frequencies of antibody-secreting cell types (ASCs). Anti-mouse pan-IgG is used as a positive control for total IgG producing ASCs and is used to normalize results. Frequencies for each antigen are identified in an initial test phase for each model. For chromatin and total IgG only, 30,000 splenocytes are added to each well; for Smith antigen and dsDNA, 500,000 cells are added to each well. Different numbers of splenocytes are added for different antigens due to saturation limits of spot frequencies per well. B-cell Elispots are incubated overnight at 37° C. To develop each assay, secondary antibody is added to each well, incubated, washed and alkaline phosphatase strepavidin (Jackson ImmunoResearch, West Grove, Pa.) is used as the conjugate; substrate used is BCIP-NBT (MabTech, Cincinnati, Ohio). Plates are developed until spots are visible. All Elispot analyses are performed using an Immunospot C.T.L. scanner and Biospot software (Cellular Technology Ltd., Shaker Heights, Ohio). Results are shown as values from which media and cells only wells are subtracted. Some values are negative due to high background.

20S proteasome = 20S proteasome activity in spleen (ex vivo fluorogenic assay), MRL/lpr mice; conditions: for PD EOS 20S proteasome, percent change vs vehicle: spleen
NZB/W F1 mice = conditions: lupus prone NZB/W F1 mice; cited from earlier work
MRL/lpr mice [7] = conditions: 6 control animals, 5 on drug, p=0.03; cited from earlier work
[8] = in vivo; cited from earlier work

CC(C)C[C@H](NC(=O)[C@@H](NC(=O)c1cccc(-c2ccccc2)n1)[C@@H](C)O)B(O)O [COMPOUND A, [(1R)-1-[[(2S,3R)-3-hydroxy-2-[6-phenyl-pyridine-2-carbonyl)amino]-1-oxobutyl]amino]-3-methylbutylboronic acid]
serum C3 concentration increase over vehicle (MRL/lpr mice [1]; treated orally, day 99): 128%
PD EOS IκBα accumulation, percent change vs vehicle (IκBα [2]; G1: 3 mg/kg iv, 1× wk): +537%
PD EOS IκBα accumulation, percent change vs vehicle (IκBα [2]; G2: 3 mg/kg iv, 2× wk): +227%
PD EOS IκBα accumulation, percent change vs vehicle (IκBα [2]; G3: 10 mg/kg po, 2× wk): +166%
PD IκBα accumulation, percent change vs vehicle (IκBα [3]; G1 3 mg/kg ip, 1× wk): +33%
p, kidney IκBα accumulation 3 hours post dosing vs G9 Vehicle 1× wk ip (IκBα [3]; G2 3 mg/kg 2× wk ip): p < 0.05
PD IκBα accumulation, percent change vs vehicle (IκBα [3]; G2 3 mg/kg ip, 2× wk): +60%
kidney IκBα increase above vehicle (IκBα [3]; twice weekly administration): ~40%
survival relative to vehicle (NZM mice [4]): significantly increased survival
proteinuria compared to vehicle (Group 10) and bortezomib ip (Group 7) (NZM mice [5]): reduced proteinuria
anti-sdDNA ASC decrease vs vehicle (NZM mice [6]; Group 1 (regimen: Table 42)): 97.9%
anti-smith ASC decrease vs vehicle (NZM mice [6]; Group 1 (regimen: Table 42)): 98.7%
anti-sdDNA ASC decrease vs vehicle (NZM mice [6]; Group 2 (regimen: Table 42)): 96.4%
anti-smith ASC decrease vs vehicle (NZM mice [6]; Group 2 (regimen: Table 42)): 96.6%
anti-sdDNA ASC decrease vs vehicle (NZM mice [6]; Group 4 (regimen: Table 42)): 100.7%
anti-smith ASC decrease vs vehicle (NZM mice [6]; Group 4 (regimen: Table 42)): 98.6%
anti-sdDNA ASC decrease vs vehicle (NZM mice [6]; Group 5 (regimen: Table 42)): 95.9%
anti-smith ASC decrease vs vehicle (NZM mice [6]; Group 5 (regimen: Table 42)): 97.6%
spleen 20S proteasome function decrease vs vehicle (20S proteasome; Group 1): 40%
spleen 20S proteasome function decrease vs vehicle (20S proteasome; Group 2): 45%
spleen 20S proteasome function decrease vs vehicle (20S proteasome; Group 3): 41%
PD EOS 20S proteasome, percent change vs vehicle (20S proteasome; G1: 3 mg/kg iv, 1× wk): −40%
PD EOS 20S proteasome, percent change vs vehicle (20S proteasome; G2: 3 mg/kg iv, 2× wk): −45%
PD EOS 20S proteasome, percent change vs vehicle (20S proteasome; G3: 10 mg/kg po, 2× wk): −41%

CC(C)C[C@H](NC(=O)[C@H](Cc1ccccc1)NC(=O)c1cnccn1)B(O)O [bortezomib, reference compound]
serum C3 relative to vehicle (MRL/lpr mice [1]; bortezomib treatment groups): did not exhibit a significant increase in serum C3
PD EOS IκBα accumulation, percent change vs vehicle (IκBα [2]; G4: 0.5 mg/kg iv, 1× wk): +340%
PD EOS IκBα accumulation, percent change vs vehicle (IκBα [2]; G5: 0.3 mg/kg iv, 2× wk): +99%
PD IκBα accumulation, percent change vs vehicle (IκBα [3]; G3 0.3 mg/kg ip, 1× wk): +61%
PD IκBα accumulation, percent change vs vehicle (IκBα [3]; G4 0.3 mg/kg ip, 2× wk): +29%
anti-dsDNA ASC decrease vs vehicle (NZM mice [6]; Group 7, ip): 64.7%
anti-smith ASC decrease vs vehicle (NZM mice [6]; Group 7, ip): 46.3%
anti-dsDNA ASC decrease vs vehicle (NZM mice [6]; Group 8, sc): 88.9%
anti-smith ASC decrease vs vehicle (NZM mice [6]; Group 8, sc): 82.4%
proteinuria (NZB/W F1 mice): significantly reduced proteinuria
renal pathology (NZB/W F1 mice): improved renal pathology
survival compared to vehicle (NZB/W F1 mice): markedly prolonged survival
survival (MRL/lpr mice [7]): significantly improved survival
serious side effects [8]: polyneuropathy, thrombocytopenia and gastrointestinal complications
spleen 20S proteasome function decrease vs vehicle (20S proteasome; Group 4): 40%
spleen 20S proteasome function decrease vs vehicle (20S proteasome; Group 5): 41%
PD EOS 20S proteasome, percent change vs vehicle (20S proteasome; G4: 0.5 mg/kg iv, 1× wk): −40%
PD EOS 20S proteasome, percent change vs vehicle (20S proteasome; G5: 0.3 mg/kg iv, 2× wk): −41%
